Test systems include SK-MEL-28; MOLT-4; SF-539; RXF 393; NCI-H522; HOP-92; CAKI-1; OVCAR-3; SN12C; Malme-3M; 786-0; SNB-19; HCT-15; SF-268; U-251; K562; PC-3; NCI-H460; KM12; SW-620.
Common to all, as to assay: growth of human tumour cells (NCI), 48 h

Structures are written as SMILES.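 Compound exposure: 48 hours, 5 concentrations, 96-well plates. At the GI50, growth is halved.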 Active and inactive are the calls of the source. No stated cut-off is given here; in the data, active = GI50 up to about 1.1 µM and inactive = higher.

As to `C[N+](C)(C)/C=N\c1cccc2nsnc12`, the GI50 in the assay on SK-MEL-28, in the assay with MOLT-4, in the assay with SF-539, in the assay with RXF 393, in the assay with NCI-H522 and in the assay on HOP-92 was > 100 µM (inactive) in each case. Besides, the GI50 in the assay with CAKI-1, with OVCAR-3, in the assay on SN12C, in the assay on Malme-3M, in the assay on 786-0 and with SNB-19 was > 100 µM (inactive) throughout. For the same compound, the GI50 was > 100 µM with HCT-15; > 100 µM (inactive) in the assay on SF-268; > 100 µM (inactive) in the assay on U-251; > 100 µM (inactive) with K562; > 100 µM (inactive) in the assay on PC-3.

Take `O=C1c2ccccc2-n2c1nc1cc(Cl)ccc1c2=O`: the GI50 in the assay on MOLT-4 is 11.9 µM (inactive); with NCI-H460 it was 30.3 µM (inactive); with SF-539, > 100 µM (inactive); in the assay on RXF 393 it was 55.7 µM (inactive); in the assay with KM12, 39.9 µM (inactive); in the assay on NCI-H522 it was 29.9 µM (inactive). Besides, the GI50 in the assay on HOP-92 is 71.6 µM (inactive); with CAKI-1 it was 36.8 µM (inactive); with OVCAR-3 it was 23 µM (inactive); in the assay with SN12C, > 100 µM (inactive); with Malme-3M, 6.7 µM (inactive); in the assay with 786-0 it was 89.7 µM (inactive). Moreover, the GI50 was > 100 µM (inactive) in the assay on SNB-19; 21.2 µM in the assay with HCT-15; 61.9 µM (inactive) in the assay on SF-268; 51.4 µM (inactive) in the assay on U-251; 4.05 µM (inactive) with K562; > 100 µM (inactive) with PC-3.

As to `COC(=O)/C(C#N)=C(\Nc1ccccc1)N1CCCCC1`, the GI50 in the assay with SK-MEL-28, in the assay with MOLT-4, with NCI-H460, in the assay with SF-539, in the assay on RXF 393 and in the assay with NCI-H522 was > 100 µM (inactive) in each case. The GI50 in the assay on HOP-92, in the assay on CAKI-1, in the assay on OVCAR-3, in the assay on SN12C, in the assay with Malme-3M and in the assay on 786-0 was > 100 µM (inactive) throughout. Further, the GI50 is > 100 µM (inactive) in the assay on SNB-19; > 100 µM with HCT-15; > 100 µM (inactive) with SF-268; > 100 µM (inactive) in the assay with U-251; > 100 µM (inactive) with SW-620; > 100 µM (inactive) with K562. Also, the GI50 in the assay with PC-3 was > 100 µM (inactive).

For `O=c1cc(-c2ccc(O)c(O)c2)oc2cc(O[C@H]3O[C@H](CO)[C@@H](O)[C@H](O)[C@H]3O)cc(O)c12`, the GI50 in the assay with SK-MEL-28 was 59.3 µM (inactive); in the assay on MOLT-4, 21.4 µM (inactive); in the assay with NCI-H460, 34.8 µM (inactive); in the assay with SF-539, > 100 µM (inactive); in the assay on RXF 393 it was > 100 µM (inactive); in the assay on KM12 it was 38 µM (inactive). Moreover, the GI50 in the assay on NCI-H522 was 41.3 µM (inactive); in the assay on HOP-92 it was > 100 µM (inactive); with CAKI-1, 89.9 µM (inactive); in the assay with OVCAR-3 it was 81.7 µM (inactive); in the assay with SN12C, > 100 µM (inactive); with Malme-3M it was > 100 µM (inactive). The GI50 in the assay on 786-0 is > 100 µM (inactive); in the assay with SNB-19, 75.9 µM (inactive); in the assay with HCT-15, 41.5 µM; in the assay on SF-268, 62.1 µM (inactive); with U-251 it was > 100 µM (inactive); with SW-620, > 100 µM (inactive). The GI50 in the assay with PC-3 was 70.6 µM (inactive).

With `COC(=O)CN1CCN(c2cccc3c2CCCC3)CC1`, the GI50 with MOLT-4 was 44.5 µM (inactive); in the assay with NCI-H460 it was 46.8 µM (inactive); in the assay with SF-539 it was > 100 µM (inactive); in the assay on RXF 393 it was > 100 µM (inactive); in the assay with KM12, 43.9 µM (inactive); with NCI-H522, 67.6 µM (inactive). In addition, the GI50 in the assay on HOP-92 was 0.0248 µM (active); in the assay with CAKI-1, > 100 µM (inactive); with OVCAR-3, 19.9 µM (inactive); with SN12C, 56 µM (inactive); in the assay on Malme-3M it was 24.5 µM (inactive); in the assay with 786-0, 36.2 µM (inactive). Besides, the GI50 with SNB-19 is > 100 µM (inactive); with HCT-15, > 100 µM; with U-251, > 100 µM (inactive); in the assay on SW-620, > 100 µM (inactive); with K562 it was 90.2 µM (inactive); with PC-3, 64.6 µM (inactive).

Regarding `CC1=C2NCN(C)N=C2C(C#N)(C#N)C1(C#N)C#N`, the GI50 with SK-MEL-28 is 21.6 µM (inactive); in the assay on MOLT-4, 2.56 µM (inactive); with SF-539, 27 µM (inactive); in the assay on RXF 393, 19.1 µM (inactive); with KM12, > 65.9 µM (inactive); with NCI-H522, 8.87 µM (inactive). The GI50 in the assay on HOP-92 is 15.4 µM (inactive); with CAKI-1, 5.97 µM (inactive); in the assay with OVCAR-3, 20.4 µM (inactive); with SN12C, 19.5 µM (inactive); in the assay on Malme-3M it was 20.4 µM (inactive); with 786-0, 19.5 µM (inactive). The GI50 with SNB-19 is 36.9 µM (inactive); in the assay with HCT-15 it was 21 µM; with SF-268, 32.2 µM (inactive); with U-251, 28.9 µM (inactive); in the assay on SW-620 it was 10.2 µM (inactive); with K562, 3.78 µM (inactive). Also, in the assay with PC-3, the GI50 is 26.9 µM (inactive).

On to `CC1CN=C(Nc2cccc(F)c2)S1` (configuration not stated), for which the GI50 with SK-MEL-28, with SF-539, in the assay with RXF 393, in the assay with KM12, in the assay on NCI-H522 and in the assay on HOP-92 was > 100 µM (inactive) in each case. For the same compound, the GI50 in the assay on CAKI-1, in the assay with OVCAR-3, with SN12C, with Malme-3M, in the assay with 786-0 and with SNB-19 was > 100 µM (inactive) each time. For the same compound, the GI50 in the assay on HCT-15 was > 100 µM; with SF-268 it was > 100 µM (inactive); in the assay with U-251, > 100 µM (inactive); in the assay on SW-620, > 100 µM (inactive); in the assay on K562 it was > 100 µM (inactive); with PC-3, > 100 µM (inactive).

With `O=c1[nH][nH]c(=O)c2c1ccc1oc3ccccc3c12`, the GI50 in the assay on SK-MEL-28, in the assay on MOLT-4, in the assay on NCI-H460, in the assay on SF-539, with RXF 393 and with KM12 was > 100 µM (inactive) each time. Besides, the GI50 in the assay on NCI-H522 is > 100 µM (inactive); with HOP-92, > 100 µM (inactive); in the assay with CAKI-1 it was 45.8 µM (inactive); in the assay on OVCAR-3, > 100 µM (inactive); in the assay on SN12C it was > 100 µM (inactive); in the assay on Malme-3M, > 100 µM (inactive). The GI50 with 786-0, in the assay on SNB-19, with SF-268, with U-251, with SW-620 and in the assay on K562 was > 100 µM (inactive) each time. Moreover, the GI50 in the assay on PC-3 is > 100 µM (inactive).

The values are drawn from ChEMBL document CHEMBL1201862, “PubChem BioAssay data set” (2004).
